In patent publication US20100183600A1, “RAF Inhibitors and Their Uses” (ARQULE, INC., priority 2008, published 2010):
pEC50, pIC50: −log10 of the molar value. Like-named read-outs stand apart in the source and are kept apart here.

Legend:
[1] = biological target: T1, mutant B-RAF (Homo sapiens, UniProt P15056, V600E); experiment: Measurement of RAF activity (MEK-1 phosphorylation); type: biochemical; details: for increase in IC50 relative to compound 14: mutant B-RAF
T1 construct: purchased Upstate (Charlottesville, Va.)
Experimental: Materials: The RAF kinases and the anti-phospho MEK1/2 antibody were from Upstate (Charlottesville, Va.). The RAF substrate used was full length N-terminal GST-MEK-1, which was expressed in E. coli and purified in-house by HPLC. All proteins were aliquoted and stored at −80° C. Superblock™ in phosphate buffered saline (PBS) blocking reagent was form Pierce (cat. #37515). ATP was from Roche (cat. # 19035722). Alkaline Phosphatase-tagged goat anti-rabbit antibody was from Pierce (cat. # 31340).
Methods: All RAF biochemical assays were performed using an assay buffer containing 20 mM MOPS, 5 mM EGTA, 37.5 mM MgCl2, 1 mM DTT and 50 μM ATP. There was 6.25 ng/well mutant B-RAF and 7.5 ng/well MEK-1 in the final assay conditions. Compounds were serially diluted in assay buffer containing 1% DMSO and 20 μl of test compound at a concentration 3-fold more than the final concentration, and were added to a polypropylene V-well reaction plate. Vehicle control wells received buffer only with DMSO at equivalent concentrations to the test wells. […] These reaction plates were incubated at room temperature for 30 minutes. Capture of MEK-1 was initiated by transferring 50 μl of the reaction mixture to a Nunc Maxisorp™ microplate that is designed for non-specific protein capture. After 30 minute capture of MEK-1 at room temperature, this plate was washed with TBST (6×200 μL/well) to fully terminate the reaction. The plate was then blocked for 1 hour by the addition of 100 μl/well of Superblock™ in phosphate buffered saline (PBS) blocking reagent. Plate was again washed with TBST (6 times with 200 μl/well), followed by the addition of 70 μl/well of Upstate anti-phospho MEK ½ diluted 1:1000 in Pierce Superblock (PBS). After a 60 minute incubation, this plate was washed with TBST (6 times with 200 μl/well), and 70 μl of the secondary antibody (Pierce Alkaline Phosphatase tagged goat anti-rabbit) prepared at 1:4000 in Superblock, were added. After a 45 minute incubation at room temperature, the wells of the microplate were washed with TBST (6 times with 200 μl/well), and thereafter 100 μl/well of Attophos™ fluorescent alkaline phosphatase substrate was added according to the manufacturer's instructions (JBL Scientific). Fluorescence was read on a Perkin Elmer Envision multilabel reader, using the following filters: Excitation Filter: CFP430 nM, Emission Filter: Emission Filter 579 nM.

[2] = test system: p-Erk (A375); experiment: Cell-based phosphorylation assay with electroblotting readout; set-up: species or system human; details: A375 cells; for pEC50: Homo sapiens, A-375, 1 hr
Source text: Compounds of the present invention have been screened for their ability to inhibit all isoforms, both wild-type and mutant of RAF kinases (A-RAF, B-RAF and C-RAF) in general, and the mutant B-RAF (V600E) in particular in human cancer cells. A375 is a human melanoma cell line that harbors the most common B-RAF mutation-V600E found in human cancers. The ability of compounds to inhibit RAF kinases in this assay is correlated with the reduction of MEK and ERK phosphorylation, and is therefore a direct indicator of potential in vivo therapeutic activity.
Materials: A375 cells from ATCC were maintained at 37° C., 5% CO2 in DMEM media supplemented with 10% fetal bovine serum, penicillin/streptomycin and fungizone. (Invitrogen)
Methods: Test compounds were dissolved and diluted 1:1000 in DMSO. A375 cells were seeded in six-well tissue culture plates at 5-8×10^5 per well and cultured at 37° C. for 24 h. Cells were incubated with compounds for one hour before being lysed in EPage™ loading buffer (Invitrogen). Lysates were electrophoresed on 8% EPage™ gels and transferred to polyvinylidene difluoride membranes. After incubations with primary and secondary antibodies, the immunostained proteins were detected and quantitated by an Odyssey infrared imager (LI-COR). Analysis was performed by non-linear regression to generate a dose response curve. The calculated IC50 value was the concentration of the test compound that causes a 50% decrease in phospho-MEK and phospho-ERK levels. The primary antibodies used were anti-MEK (Stressgen), anti-ERK (BD Biosciences), anti-phospho-ERK and anti-phospho-MEK (Cell Signaling). The secondary antibodies used were IRDYE800 anti-rabbit, IRDYE 800 anti-mouse (Rockland), AlexaFluor680 anti-mouse and AlexaFluoro680 anti-rabbit (Invitrogen).
A375 cells were treated with 0, 12, 37, 111, 333 and 1000 nM of indicated compounds for 1 hr. The levels of Phospho-ERK and total-ERK were accessed by immunoblotting.

[3] = 50 μM ATP, MEK-1 substrate, read-out: Mut-B-Raf IC50

T1 sequence (P15056 whole entry V600E): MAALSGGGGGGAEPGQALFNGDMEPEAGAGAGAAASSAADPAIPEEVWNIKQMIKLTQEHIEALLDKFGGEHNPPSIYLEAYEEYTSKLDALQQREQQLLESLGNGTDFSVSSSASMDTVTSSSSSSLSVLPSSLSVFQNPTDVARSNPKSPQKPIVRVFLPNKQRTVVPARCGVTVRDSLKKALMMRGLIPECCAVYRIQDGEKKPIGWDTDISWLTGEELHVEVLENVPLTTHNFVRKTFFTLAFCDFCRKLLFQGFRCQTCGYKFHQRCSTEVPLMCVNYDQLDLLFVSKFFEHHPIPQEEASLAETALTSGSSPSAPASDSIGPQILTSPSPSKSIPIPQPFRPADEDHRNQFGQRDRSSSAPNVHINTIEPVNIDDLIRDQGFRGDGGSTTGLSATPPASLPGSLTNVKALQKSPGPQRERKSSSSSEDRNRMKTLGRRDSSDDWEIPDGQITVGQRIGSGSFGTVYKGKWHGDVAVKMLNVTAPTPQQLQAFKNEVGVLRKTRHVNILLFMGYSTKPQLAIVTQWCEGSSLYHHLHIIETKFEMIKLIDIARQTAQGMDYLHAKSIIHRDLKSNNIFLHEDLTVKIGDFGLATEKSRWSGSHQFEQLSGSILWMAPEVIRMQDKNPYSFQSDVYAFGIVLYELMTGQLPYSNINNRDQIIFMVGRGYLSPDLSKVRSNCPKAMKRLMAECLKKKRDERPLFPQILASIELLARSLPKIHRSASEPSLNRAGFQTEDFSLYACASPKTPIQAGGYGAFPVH

Compound: O=S(=O)(c1ccc(Cl)cc1)N1CCC[C@@H](Nc2nccc(-c3c(-c4cccc(O)c4)nc4sccn34)n2)C1 [Compound 1, (R)-3-(5-(2-(1-(4-chlorophenylsulfonyl)piperidin-3-ylamino)pyrimidin-4-yl)imidazo[2,1-b]thiazol-6-yl)phenol]
- pIC50 [1, 3]: 8.22
- pEC50 [2]: 7.96

Compound: O=P(O)(O)Oc1cccc(-c2nc3sccn3c2-c2ccnc(N[C@@H]3CCCN(S(=O)(=O)c4ccc(Cl)cc4)C3)n2)c1 [Compound 2, (R)-3-(5-(2-(1-(4-chlorophenylsulfonyl)piperidin-3-ylamino)pyrimidin-4-yl)imidazo[2,1-b]thiazol-6-yl)phenyl dihydrogen phosphate]
- pIC50 [1]: 5.72
- pEC50 [2]: 6.59

Compound: O=P(O)(O)OCOc1cccc(-c2nc3sccn3c2-c2ccnc(N[C@@H]3CCCN(S(=O)(=O)c4ccc(Cl)cc4)C3)n2)c1 [Compound 3, (R)-(3-(5-(2-(1-(4-chlorophenylsulfonyl)piperidin-3-ylamino)pyrimidin-4-yl)imidazo[2,1-b]thiazol-6-yl)phenoxy)methyl dihydrogen phosphate]
- pIC50 [1, 3]: 6.43
- pEC50 [2]: 7.15

Compound: O=P(O)(O)Oc1cccc(-c2nc3occn3c2-c2ccnc(N[C@@H]3CCCN(S(=O)(=O)c4ccc(Cl)cc4)C3)n2)c1 [Compound 5, (R)-3-(5-(2-(1-(4-chlorophenylsulfonyl)piperidin-3-ylamino)pyrimidin-4-yl)imidazo[2,1-b]oxazol-6-yl)phenyl dihydrogen phosphate]
- pIC50 [1]: 5.72
- pEC50 [2]: 6.90

Compound: O=P(O)(O)OCOc1cccc(-c2nc3occn3c2-c2ccnc(N[C@@H]3CCCN(S(=O)(=O)c4ccc(Cl)cc4)C3)n2)c1 [Compound 6, (R)-(3-(5-(2-(1-(4-chlorophenylsulfonyl)piperidin-3-ylamino)pyrimidin-4-yl)imidazo[2,1-b]oxazol-6-yl)phenoxy)methyl dihydrogen phosphate]
- pIC50 [1, 3]: 5.85
- pEC50 [2]: 7.92

Compound: O=P(O)(O)OCOc1cccc(-c2nc3sccn3c2-c2ccnc(NC3CCN(S(=O)(=O)c4ccc(Cl)cc4)CC3)n2)c1 [Compound 8, (3-(5-(2-(1-(4-chlorophenylsulfonyl)piperidin-4-ylamino)pyrimidin-4-yl)imidazo[2,1-b]thiazol-6-yl)phenoxy)methyl dihydrogen phosphate]
- pIC50 [1, 3]: 6.39
- pEC50 [2]: 6.03

Compound: O=P(O)(O)Oc1cccc(-c2nc3occn3c2-c2ccnc(NC3CCN(S(=O)(=O)c4ccc(F)cc4)CC3)n2)c1 [Compound 10, 3-(5-(2-(1-(4-fluorophenylsulfonyl)piperidin-4-ylamino)pyrimidin-4-yl)imidazo[2,1-b]oxazol-6-yl)phenyl dihydrogen phosphate]
- pIC50 [1]: 5.93
- pEC50 [2]: 7.06

Compound: O=P(O)(O)Oc1cccc(-c2nc3occn3c2-c2ccnc(NC3CCN(S(=O)(=O)C4CC4)CC3)n2)c1 [Compound 12, 3-(5-(2-(1-(cyclopropylsulfonyl)piperidin-4-ylamino)pyrimidin-4-yl)imidazo[2,1-b]oxazol-6-yl)phenyl dihydrogen phosphate]
- pIC50 [1]: < 5.48
- pEC50 [2]: 6.75

Compound: O=P(O)(O)OCOc1cccc(-c2nc3occn3c2-c2ccnc(NC3CCN(S(=O)(=O)C4CC4)CC3)n2)c1 [Compound 13, (3-(5-(2-(1-(cyclopropylsulfonyl)piperidin-4-ylamino)pyrimidin-4-yl)imidazo[2,1-b]oxazol-6-yl)phenoxy)methyl dihydrogen phosphate]
- pIC50 [1, 3]: < 5.48
- pEC50 [2]: 6.79

Compound: Cn1ccc(S(=O)(=O)N2CCC[C@@H](Nc3nccc(-c4c(-c5cccc(OP(=O)(O)O)c5)nc5sccn45)n3)C2)n1 [Compound 15, (R)-3-(5-(2-(1-(1-methyl-1H-pyrazol-3-ylsulfonyl)piperidin-3-ylamino)pyrimidin-4-yl)imidazo[2,1-b]thiazol-6-yl)phenyl dihydrogen phosphate]
- pIC50 [1]: 5.62
- increase in IC50 relative to compound 14 [1]: ~400 fold
- deviation in EC50 (cell-based ERK inhibition) relative to compound 14 [2]: about 2 fold
- pEC50 [2]: 8.10

Compound: Cn1ccc(S(=O)(=O)N2CCC[C@@H](Nc3nccc(-c4c(-c5cccc(OCOP(=O)(O)O)c5)nc5sccn45)n3)C2)n1 [Compound 16, (R)-(3-(5-(2-(1-(1-methyl-1H-pyrazol-3-ylsulfonyl)piperidin-3-ylmino)pyrimidin-4-yl)imidazo[2,1-b]thiazol-6-yl)phenoxy)methyl dihydrogen phosphate]
- pIC50 [1, 3]: 5.94
- increase in IC50 relative to compound 14 [1]: ~193 fold
- deviation in EC50 (cell-based ERK inhibition) relative to compound 14 [2]: ~4 fold
- pEC50 [2]: 8.40

Compound: Cn1ccc(S(=O)(=O)N2CCC[C@@H](Nc3nccc(-c4c(-c5cccc(OP(=O)(O)O)c5)nc5occn45)n3)C2)n1 [Compound 18, (R)-3-(5-(2-(1-(1-methyl-1H-pyrazol-3-ylsulfonyl)piperidin-3-ylamino)pyrimidin-4-yl)imidazo[2,1-b]oxazol-6-yl)phenyl dihydrogen phosphate]
- pIC50 [1]: < 5.48
- pEC50 [2]: 7.06

Compound: Cn1ccc(S(=O)(=O)N2CCC(Nc3nccc(-c4c(-c5cccc(OCOP(=O)(O)O)c5)nc5occn45)n3)CC2)n1 [Compound 21, (3-(5-(2-(1-(1-methyl-1H-pyrazol-3-ylsulfonyl)piperidin-4-ylamino)pyrimidin-4-yl)imidazo[2,1-b]oxazol-6-yl)phenoxy)methyl dihydrogen phosphate]
- pIC50 [1, 3]: 5.94
- pEC50 [2]: 6.85

Compound: Cn1ccc(S(=O)(=O)N2CCC[C@@H](Nc3nccc(-c4c(-c5ccc(F)c(OP(=O)(O)O)c5)nc5occn45)n3)C2)n1 [Compound 23, (R)-2-fluoro-5-(5-(2-(1-(1-methyl-1H-pyrazol-3-ylsulfonyl)piperidin-3-ylamino)pyrimidin-4-yl)imidazo[2,1-b]oxazol-6-yl)phenyl dihydrogen phosphate]
- pIC50 [1]: 5.98
- pEC50 [2]: 8.05

Compound: Cn1ccc(S(=O)(=O)N2CCC[C@@H](Nc3nccc(-c4c(-c5ccc(F)c(OCOP(=O)(O)O)c5)nc5occn45)n3)C2)n1 [Compound 24, (R)-(2-fluoro-5-(5-(2-(1-(1-methyl-1H-pyrazol-3-ylsulfonyl)piperidin-3-ylamino)pyrimidin-4-yl)imidazo[2,1-b]oxazol-6-yl)phenoxy)methyl dihydrogen phosphate]
- pIC50 [1, 3]: 7.55
- pEC50 [2]: 7.28
